In experiment [1] the target is Casein kinase 1 delta (CSKN1D) (Homo sapiens, UniProt P48730). The experiment in a line: Casein kinase assay, CK1 delta. The format is biochemical. Conditions: recombinant CSKN1D 5 nM, ATP 10 μM.
Experiment [2] concerns the target Casein kinase 1 epsilon (CSKN1E) (Homo sapiens, UniProt P49674). The experiment in a line: Casein kinase assay, CK1 epsilon. The format is biochemical. Conditions: recombinant CSKN1E 30 nM, ATP 10 μM. The method, then: The recombinant protein Casein kinase 1 delta (CSKN1D) was added to the substrate solution in a concentration of 5 nM and gently mixed. Dilution series in of compounds of the present invention in DMSO were added to the reaction mixture, followed after 20 min by addition of a mixture of ATP and ^33P-ATP (specific activity 0.01 μCi/μl final) to a final concentration of 10 μM. Reactions were carried out at 25° C. for 120 min, followed by spotting the reactions onto P81 ion exchange filter paper. Unbound phosphate was removed by washing of the filters in 0.75% phosphoric acid. […] IC50 values and curve fits were obtained using the program Prism® (Graph Pad Software).
The above assay was also used to determine the inhibitory capacity of the compounds of the present invention on Casein Kinase 1 epsilon, wherein instead of CSKN1D, recombinant protein Casein kinase 1 epsilon (CSKN1E) was added to the substrate solution in a concentration of 30 nM and gently mixed.

Casein kinase 1 epsilon (CSKN1E), sequence (P49674 whole entry): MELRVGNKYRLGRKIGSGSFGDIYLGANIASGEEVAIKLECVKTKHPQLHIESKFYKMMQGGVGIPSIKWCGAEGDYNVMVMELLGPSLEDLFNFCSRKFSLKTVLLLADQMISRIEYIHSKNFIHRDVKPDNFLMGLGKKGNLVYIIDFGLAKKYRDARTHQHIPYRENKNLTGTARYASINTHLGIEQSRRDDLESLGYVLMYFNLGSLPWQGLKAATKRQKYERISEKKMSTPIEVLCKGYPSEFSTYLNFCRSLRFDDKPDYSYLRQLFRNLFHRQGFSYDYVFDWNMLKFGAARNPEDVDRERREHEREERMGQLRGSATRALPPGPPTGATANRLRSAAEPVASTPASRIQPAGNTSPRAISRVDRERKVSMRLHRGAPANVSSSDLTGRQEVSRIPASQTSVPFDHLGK
Casein kinase 1 delta (CSKN1D), sequence (P48730 whole entry): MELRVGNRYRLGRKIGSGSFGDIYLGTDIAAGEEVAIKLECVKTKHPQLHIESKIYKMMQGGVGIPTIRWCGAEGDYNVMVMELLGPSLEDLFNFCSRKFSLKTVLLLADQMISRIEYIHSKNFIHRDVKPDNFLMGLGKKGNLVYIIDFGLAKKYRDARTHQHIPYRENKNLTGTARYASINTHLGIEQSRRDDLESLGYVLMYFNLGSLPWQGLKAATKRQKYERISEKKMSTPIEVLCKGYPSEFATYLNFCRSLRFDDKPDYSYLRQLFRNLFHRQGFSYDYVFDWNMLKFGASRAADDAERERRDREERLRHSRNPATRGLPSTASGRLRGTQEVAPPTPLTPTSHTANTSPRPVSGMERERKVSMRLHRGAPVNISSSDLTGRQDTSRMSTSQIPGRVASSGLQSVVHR

Take `O=C(Nc1nc(C(=O)Nc2nc3cc4c(cc3[nH]2)OC(F)(F)O4)ns1)c1ccc(F)cc1` [Compound 92, N-(2,2-difluoro-5H-[1,3]dioxolo[4′,5′:4,5]benzo[1,2-d]imidazol-6-yl)-5-(4-fluorobenzamido)-1,2,4-thiadiazole-3-carboxamide]: the IC50 in experiment [1] and in experiment [2] was under 200 nM each time.

On to `Nc1ncc(Br)nc1C(=O)Nc1nc2cc3c(cc2[nH]1)OC(F)(F)O3` [Compound 22, 2-amino-6-bromo-N-(2,2-difluoro-5H-[1,3]dioxolo[4′,5′:4,5]benzo[1,2-d]imidazol-6-yl)pyrazine-2-carboxamide], for which the values for the IC50 in experiment [1] and in experiment [2] were 200 to 1000 nM and over 1000 nM, respectively.

With `O=C(Nc1nc2cc3c(cc2[nH]1)OC(F)(F)O3)c1cccs1` [Compound 45, N-(2,2-difluoro-5H-[1,3]dioxolo[4′,5′:4,5]benzo[1,2-d]imidazol-6-yl)thiophene-2-carboxamide], the IC50 in experiment [1] and in experiment [2] was 200 to 1000 nM each time.

Consider `Cc1cc(C(F)(F)F)nc(Nc2nc(C(=O)Nc3nc4cc5c(cc4[nH]3)OC(F)(F)O5)cs2)n1` [Compound 25, N-(2,2-difluoro-5H-[1,3]dioxolo[4′,5′:4,5]benzo[1,2-d]imidazol-6-yl)-2-((4-methyl-6-(trifluoromethyl)pyrimidin-2-yl)amino)thiazole-4-carboxamide], for which the IC50 in experiment [1] and in experiment [2] was over 1000 nM each time.

Regarding `O=C(Nc1nc2cc3c(cc2[nH]1)OC(F)(F)O3)c1csc(C2CCN(c3ncnc4ccsc34)CC2)n1` [Compound 97, N-(2,2-difluoro-5H-[1,3]dioxolo[4′,5′:4,5]benzo[1,2-d]imidazol-6-yl)-2-(1-(thieno[3,2-d]pyrimidin-4-yl)piperidin-4-yl)thiazole-4-carboxamide], the IC50 in experiment [1] and in experiment [2] was 200 to 1000 nM throughout.

As to `Cc1ccccc1C(=O)Nc1nc2cc3c(cc2[nH]1)OC(F)(F)O3` [Compound 68, N-(2,2-difluoro-5H-[1,3]dioxolo[4′,5′:4,5]benzo[1,2-d]imidazol-6-yl)-2-methylbenzamide], the IC50 in experiment [1] is 200 to 1000 nM; in experiment [2] it was over 1000 nM.

As to `O=C(Nc1nc(C(=O)Nc2nc3cc4c(cc3[nH]2)OC(F)(F)O4)ns1)c1cccc(Cl)c1` [Compound 57], the IC50 in experiment [1] and in experiment [2] was under 200 nM each time.

As for `COc1ccc(C(=O)Nc2nc(C(=O)Nc3nc4cc5c(cc4[nH]3)OC(F)(F)O5)ns2)cc1` [Compound 90, N-(2,2-difluoro-5H-[1,3]dioxolo[4′,5′:4,5]benzo[1,2-d]imidazol-6-yl)-5-(4-methoxybenzamido)-1,2,4-thiadiazole-3-carboxamide], the IC50 in experiment [1] and in experiment [2] was over 1000 nM throughout.

Regarding `Cc1cc(C(=O)Nc2nc3cc4c(cc3[nH]2)OC(F)(F)O4)c(C)s1` [Compound 28, N-(2,2-difluoro-5H-[1,3]dioxolo[4′,5′:4,5]benzo[1,2-d]imidazole-6-yl)-2,5-dimethylthiophene-3-carboxamide], the IC50 in experiment [1] and in experiment [2] was 200 to 1000 nM throughout.

Consider `O=C(Nc1nc2cc3c(cc2[nH]1)OC(F)(F)O3)c1csc(-c2ccc3c(c2)OCO3)n1` [Compound 39, 2-(benzo[d][1,3]dioxol-5-yl)-N-(2,2-difluoro-5H-[1,3]dioxolo[4′,5′:4,5]benzo[1,2-d]imidazol-6-yl)thiazole-4-carboxamide], for which the IC50 in experiment [1] is over 1000 nM; in experiment [2], 200 to 1000 nM.

For the compound `CC(=O)Nc1n[nH]c(C(=O)Nc2nc3cc4c(cc3[nH]2)OC(F)(F)O4)n1` [Compound 95, 3-acetamido-N-(2,2-difluoro-5H-[1,3]dioxolo[4′,5′:4,5]benzo[1,2-d]imidazol-6-yl)-1H-1,2,4-triazole-5-carboxamide], the IC50 in experiment [1] and in experiment [2] was over 1000 nM throughout.

Take `O=C(Nc1nc2cc3c(cc2[nH]1)OC(F)(F)O3)c1cnc(NC(=O)c2ccccc2OC(F)(F)F)o1` [Compound 48, N-(2,2-difluoro-5H-[1,3]dioxolo[4′,5′:4,5]benzo[1,2-d]imidazol-6-yl)-2-(2-(trifluoromethoxy)benzamido)oxazole-5-carboxamide]: the IC50 in experiment [1] is under 200 nM; in experiment [2], 200 to 1000 nM.

Take `O=C(Nc1nc2cc3c(cc2[nH]1)OC(F)(F)O3)c1c(F)cccc1F` [Compound 54, N-(2,2-difluoro-5H-[1,3]dioxolo[4′,5′:4,5]benzo[1,2-d]imidazol-6-yl)-2,6-difluorobenzamide]: the values for the IC50 in experiment [1] and in experiment [2] were 200 to 1000 nM and over 1000 nM, respectively.

Turning to `O=C(Cc1cccc(Cl)c1)Nc1nc2cc3c(cc2[nH]1)OC(F)(F)O3` [Compound 8B, 2-(3-chlorophenyl)-N-(2,2-difluoro-5H-[1,3]dioxolo[4′,5′:4,5]benzo[1,2-d]imidazol-6-yl)acetamide], the IC50 in experiment [1] and in experiment [2] was under 200 nM each time.

`O=C(Nc1nc2cc3c(cc2[nH]1)OC(F)(F)O3)c1ccc(-n2cccn2)cc1` [Compound 142, N-(2,2-difluoro-5H-[1,3]dioxolo[4′,5′:4,5]benzo[1,2-d]imidazol-6-yl)-4-(1H-pyrazol-1-yl)benzamide]: the IC50 was under 200 nM in experiment [1] and over 1000 nM in experiment [2].

In the case of `O=C(Nc1nc2cc3c(cc2[nH]1)OC(F)(F)O3)c1nc(NC(=O)c2ccc(Cl)cc2Cl)n[nH]1` [Compound 51, 3-(2,4-dichlorobenzamido)-N-(2,2-difluoro-5H-[1,3]dioxolo[4′,5′:4,5]benzo[1,2-d]imidazol-6-yl)-1H-1,2,4-triazole-5-carboxamide], the IC50 in experiment [1] was under 200 nM; in experiment [2], 200 to 1000 nM.

Consider `CC(=O)c1c[nH]c(C(=O)Nc2nc3cc4c(cc3[nH]2)OC(F)(F)O4)c1` [Compound 104, 4-acetyl-N-(2,2-difluoro-5H-[1,3]dioxolo[4′,5′:4,5]benzo[1,2-d]imidazol-6-yl)-1H-pyrrole-2-carboxamide], for which the IC50 in experiment [1] and in experiment [2] was under 200 nM throughout.

Turning to `O=C(Nc1nc2cc3c(cc2[nH]1)OC(F)(F)O3)c1csc(-c2cccc(Cl)c2)n1` [Compound 17B, 2-(3-chlorophenyl)-N-(2,2-difluoro-5H-[1,3]dioxolo[4′,5′:4,5]benzo[1,2-d]imidazol-6-yl)thiazole-4-carboxamide], the IC50 was under 200 nM in experiment [1] and 200 to 1000 nM in experiment [2].

On to `O=C(Nc1nc2cc3c(cc2[nH]1)OC(F)(F)O3)c1csc(NC(=O)c2ccco2)n1` [Compound 11, N-(2,2-difluoro-5H-[1,3]dioxolo[4′,5′:4,5]benzo[1,2-d]imidazol-6-yl)-2-(furan-2-carboxamido)thiazole-4-carboxamide], for which the IC50 in experiment [1] and in experiment [2] was under 200 nM in each case.

`O=C(O)c1cccc(C(=O)Nc2nc3cc4c(cc3[nH]2)OC(F)(F)O4)c1` [Compound 18B, 3-((2,2-Difluoro-5H-[1,3]dioxolo[4′,5′:4,5]benzo[1,2-d]imidazol-6-yl)carbamoyl)benzoic acid]: the IC50 in experiment [1] and in experiment [2] was 200 to 1000 nM each time.

For `O=C(Nc1nc2cc3c(cc2[nH]1)OC(F)(F)O3)c1ccoc1` [Compound 32, N-(2,2-difluoro-5H-[1,3]dioxolo[4′,5′:4,5]benzo[1,2-d]imidazol-6-yl)furan-3-carboxamide], the figures for the IC50 in experiment [1] and in experiment [2] were 200 to 1000 nM and under 200 nM, respectively.

The values above are taken from US20170240556A1, “BIFLUORODIOXALANE-AMINO-BENZIMIDAZOLE KINASE INHIBITORS FOR THE TREATMENT OF CANCER, AUTOIMMUNEINFLAMMATION AND CNS DISORDERS” (4SC DISCOVERY GMBH, priority 2012, published 2017).
